Experimental data as given in article PMC5958115, “A novel small molecule chaperone of rod opsin and its potential therapy for retinal degeneration” (Nature Communications, 2018).
Entries after “also recorded” stand apart in the source; their conditions may differ. Where two headings read alike, the source gives them in different places.

Experiments:
Format in all cases: cell-based
mouse P23H-opsin mutant = mouse P23H-opsin mutant (Mus musculus, UniProt P15409, P23H); experiment: β-Gal fragment complementation assay: rescue of P23H opsin transport from ER to plasma membrane, U2OS(PLC-EA/P23H-PK) cells
Excerpt: U2OS(PLC-EA/P23H-PK) cells. A U2OS stable cell line was generated by DiscoveRx, Inc. (Fremont, CA, USA) for the β-Gal fragment complementation assay used in the small-molecule HTS for rescue of P23H-opsin transport. U2OS cells that continually express P23H-PK and PLC-EA fusion proteins were generated. Briefly, this small subunit of β-Gal (PK fragment) was fused to the C-terminal of the mouse P23H-opsin mutant, while the large EA fragment, a subunit of β-Gal, was fused with PLC, a plasma membrane-anchored peptide. Both constructs were subcloned by DicoveRx, Inc. and transferred into U2OS cells by viral infections. Positive clones were selected under treatment with hygromycin and geneticin.
Briefly, U2OS(PLC-EA /P23H-PK) cells were suspended in assay medium at 3 × 10^5 cells mL^−1. The cell suspension was dispensed into 384-well plates (Greiner Bio-one, Monroe, NC, USA) at 20 µL per well, with a Multidrop dispenser (Thermo Scientific, Waltham, MA, USA). Plates with cells then were centrifuged at 200×g for 15 s before incubation at 37 °C with 5% CO2. Plates were removed 24 h later for treatment with tested compounds. A total of 248 plates containing 79,080 compounds from three small-molecule libraries were paired with an equal number of assay plates with cultured cells. Owing to a limited capacity, these plates were assayed in seven batches. An average of 56.3 nL of 10 mM compound in DMSO was dispensed into each well from column 3 to 22 of paired assay plates using a 50 nL 384-pintool system, such that the final concentration of each compound was 22.52 µM on average. […] Each assay plate was shaken for 5 s before further incubation at 37 °C with 5% CO2. After 24 h, assay plates were removed, and each well was incubated with 25 µL of 1× Gal-Screen assay buffer (1:24 substrate-buffer ratio). Assay plates were incubated in the dark for 60–90 min, and luminescence was read from each assay plate with an Envision microplate reader (PerkinElmer) during a 0.1 s per well integration time. The mean and s.d. of readouts in column 2 of each plate were calculated as Mean0% and SD0%, whereas the average and s.d. of readouts in column 23 were calculated as Mean100% and SD100%. Eq. 1: Activity scores (%) = (RLUcp − Mean0%)/(Mean100% − Mean0%) × 100%, where RLUcp is the relative luminescence unit derived for cells treated with a compound. Eq. 2: Z′-factor = 1–3 × (SD0% + SD100%)/(Mean100% − Mean0%)[32]; Eq. 3: signal-to-background (S/B) ratio = Mean100%/Mean0%. Activities of all tested compounds were registered with their compound ID by GeneData Screener (Genedata, Basel, Switzerland) and Pipeline Pilot software (Accelrys, San Diego, CA, USA). Hits, cherry-picked from a separate stock dose-dependent activity test, were selected with an activity score cutoff at 20%. Activity of each hit was tested again with the β-Gal fragment complementation assay in a 10-dose series with each dose tested in triplicate. The 10 doses tested were 80, 40, 20, 10, 5, 2.5, 1.25, 0.625, 0.313, and 0.156 µM. Dose-dependent curves of each hit compound were fitted with GeneData and Origin software.
Detailed synthetic steps are described in Supplementary Note and Supplementary Fig. 9. […] YC-002-YC-021 were purchased from commercial vendors including Enamine LLC (Monmouth Jct., NJ, USA), Matrix Scientific (Columbia, SC, USA) and Tokyo Chemical Industry Co., Ltd. (Portland, OR, USA). […] Activities of YC compounds were tested with the β-Gal fragment complementation assay, as described in a prior section. All YC compounds were tested at 10 doses, each in triplicate: 80, 40, 20, 10, 5, 2.5, 1.25, 0.625, 0.313, and 0.156 µM.

mouse P23H opsin = target: T1, mouse P23H opsin (Mus musculus, UniProt P15409, P23H); experiment: High-content imaging analysis of P23H opsin immunostaining in NIH3T3-(P23H opsin/GFP) cells; conditions: ratio of P23H rod opsin fluorescence on plasma membrane to whole cell; for EC50: read-out: Immunostaining HCS MEM-Total ratio EC50
T1 construct: expressed in transfected cells
Experimental: To characterize the effect of active compounds on the localization of P23H-mutant opsin in mammalian cells, an image-based assay was used with cells immunostained for WT or P23H-mutant opsin protein[18]. Briefly, NIH3T3-(P23H opsin/GFP) or NIH3T3-(WT-opsin/GFP) cells were seeded at 5000 cells per well in a 384-well cell-carrier plate (PerkinElmer) and incubated at 37 °C with 5% CO2 for 2 h. Cells were treated with compounds as described for the β-Gal fragment complementation assay and incubated in assay medium for 24 h. The assay medium then was aspirated, and cells were fixed with 4% paraformaldehyde at 20 µL per well for 20 min at RT. Cells were immunostained in one of two ways: cell membranes were either permeabilized with 0.1% Triton X-100 for 15 min or left intact and then were incubated with 10% goat serum (Life Technologies). To detect opsin on the cell plasma membrane only, intact cells were immunostained with 20 µL per well of 20 µg mL^−1 B6-30 anti-rhodopsin antibody that recognizes the N-terminal epitope on the extracellular side of rhodopsin. To detect total opsin, cells were permeabilized with Triton X-100 and immunostained with 50 µg mL^−1 1D4 anti-rhodopsin antibody specific for the C-terminal epitope on the intracellular side of rhodopsin. Opsin immunostaining was visualized by incubating cells with 5 µg mL^−1 Cy3-conjugated goat anti-mouse IgG antibody. Three washes with phosphate-buffered saline (PBS: 10 mM Na2HPO4, 1.8 mM KH2PO4, pH 7.4, 137 mM NaCl, and 2.7 mM KCl) were performed between each step of incubation with antibody. In the last wash with PBS, DAPI was added to each well at 300 nM. Fluorescence images were obtained with the Operetta High Content Imaging System (PerkinElmer) using a ×20 long objective. Five fields were taken of each well for cell images using three channels for fluorescence: GFP (100 ms), Cy3 (300 ms), and DAPI (50 ms). Images were analyzed with Acapella software from the Columbus data storage and analysis system (PerkinElmer)[18]. For cells immunostained with opsin on the non-permeabilized cell membrane only, an average of total fluorescence intensity of Cy3 per cell was used to quantify opsin in each well of the 384-well plate. For cells immunostained with opsin in permeabilized whole cells, an average ratio of Cy3 intensity on the cell plasma membrane (PM) to that of the entire cell (opsin ratio PM-to-total) was calculated for each well of a 384-well plate to quantify opsin transport to the plasma membrane. The plasma membrane was defined within ± 5% of the cell border.

P23H opsin = target: T2, P23H opsin (Mus musculus, UniProt P15409, P23H); experiment: Immunoblot of P23H opsin glycosylation in NIH3T3 cell lysates; set-up: key to Improved glycosylation: n = no; y = yes; conditions: P23H opsin
T2 construct: expressed in transfected cells
Experimental: NIH3T3-(P23H opsin/GFP) or NIH3T3-(WT-opsin/GFP) cells were seeded in a 48-well plate (Corning Costar) at 3.2 × 10^5 cells per well and incubated at 37 °C with 5% CO2 for 2 h. One hundred-µL of assay medium containing a compound at 5× its final concentration was added to each well. The plate was gently shaken for 5 s before further incubation at 37 °C with 5% CO2 for 24 h. The assay medium then was aspirated, and cells were lysed with 100 µL per well PBS containing 0.1% Triton X-100 and complete protease inhibitor cocktail (Roche, Basel, Switzerland) followed by sonication for 3 s. Protein concentrations were determined with the Bradford assay. For PNGaseF catalyzed deglycosylation, 3 µL of PNGaseF (1500 U, NEB) was added to the cell lysate and the mixture was incubated at room temperature for 1 h before immunoblotting. For NIH3T3-(P23H opsin/GFP) cells, 15 µg of total protein were loaded per well onto an SDS-polyacrylamide gel; whereas for NIH3T3-(WT-opsin/GFP) cells, 5 µg of total protein was loaded per well. Opsin protein was immunostained with 0.2 μg mL^−1 horseradish peroxidase-conjugated 1D4 anti-rhodopsin antibody. Band intensities were measured with ImageJ software (http://imagej.nih.gov/ij/; National the Institutes of Health, Bethesda, MD, USA) and normalized to a glyceraldehyde 3-phosphate dehydrogenase (GAPDH) loading control. Full scans of immunoblotted membranes are shown in Supplementary Fig. 8.

[1] = 24 h; 5 µM 9-cis-retinal = 100%; experimental maximum
[2] = 24 h; 5 µM 9-cis-retinal = 100%; from curve fitting
[3] = 24 h preincubation; activity standardized to 5 µM 9-cis-retinal as 100%; Hill fit; read-out: β-Gal fragment complementation assay Activity score (%) EC50
[4] = modifications linked to C3 of the furan-2(5H)-one ring; 10 doses 0.156-80 µM; read-out: Potency EC50

| SMILES | activity in rescuing P23H-opsin transport (in words) (mouse P23H-opsin mutant) | EC50 (mouse P23H-opsin mutant; [4]) [µM] | Emax (mouse P23H-opsin mutant; U2OS; read-out: Efficacy (%)) [%] | other results |
| --- | --- | --- | --- | --- |
| O=C(NCCn1ncc2c(NCc3ccco3)ncnc21)c1cc(-c2ccccc2)on1 [Compound F2902-1134] | – | – | – | β-Gal fragment complementation assay Activity score (%) Max (Exp) (mouse P23H-opsin mutant; [1]): 23.1%; β-Gal fragment complementation assay Activity score (%) Max (fit) / Efficacy (mouse P23H-opsin mutant; [2]): 31.5%; EC50 (mouse P23H-opsin mutant; [3]): 21.6 µM; Immunostaining HCS MEM-Total ratio Max (fit) (mouse P23H opsin): 0.031; EC50 (mouse P23H opsin): 4.15 µM; Improved glycosylation (P23H opsin): n |
| COCCNC(=O)c1sc2c(cnc3ccc(OC)cc32)c1-c1ccccc1 [Compound F3382-5924] | – | – | – | β-Gal fragment complementation assay Activity score (%) Max (fit) / Efficacy (mouse P23H-opsin mutant; [2]): 155%; EC50 (mouse P23H-opsin mutant; [3]): 28.6 µM; Immunostaining HCS MEM-Total ratio Max (fit) (mouse P23H opsin): 0.046; EC50 (mouse P23H opsin): 2.42 µM; Improved glycosylation (P23H opsin): y |
| O=C(Cn1c2c(c(=O)n(C3CCCCC3)c1=O)CCC2)Nc1cccc(F)c1 [Compound F5111-0031] | – | – | – | β-Gal fragment complementation assay Activity score (%) Max (Exp) (mouse P23H-opsin mutant; [1]): 60.4%; β-Gal fragment complementation assay Activity score (%) Max (fit) / Efficacy (mouse P23H-opsin mutant; [2]): 165%; EC50 (mouse P23H-opsin mutant; [3]): 54.3 µM; Immunostaining HCS MEM-Total ratio Max (fit) (mouse P23H opsin): 0.025; EC50 (mouse P23H opsin): 6.76 µM; Improved glycosylation (P23H opsin): y |
| O=C(C1CC1)N(CCn1cccn1)c1nc2c(Cl)cccc2s1 [Compound F5581-0240] | – | – | – | β-Gal fragment complementation assay Activity score (%) Max (Exp) (mouse P23H-opsin mutant; [1]): 244%; β-Gal fragment complementation assay Activity score (%) Max (fit) / Efficacy (mouse P23H-opsin mutant; [2]): 230%; EC50 (mouse P23H-opsin mutant; [3]): 5.93 µM; Immunostaining HCS MEM-Total ratio Max (fit) (mouse P23H opsin): 0.010; EC50 (mouse P23H opsin): 0.64 µM; Improved glycosylation (P23H opsin): y |
| Cc1sc(C)c(C2C(=O)OC(=O)C2c2c(C)sc(C)c2C)c1C (stereo not drawn) [YC-018] | – | – | – | EC50 (mouse P23H-opsin mutant; more than one site modified; read-out: Potency): 138 µM |
| O=C1OCC(c2ccc(Cl)s2)=C1c1ccco1 [YC-028] | failed to retain activity | – | – | – |
| O=C1OCC(c2ccc(Cl)s2)=C1c1ccccn1 [YC-043] | activity was preserved or improved; also recorded: improved potency, efficacy, or solubility | 19 | – | Efficacy (%) (mouse P23H-opsin mutant; modifications at C3; normalized to 5 µM 9-cis-retinal): 214% |
| O=C1OCC(c2ccc(Cl)s2)=C1c1ccccc1 [YC-047] | activity was preserved or improved | 9.87 | 188 | – |
| O=C1OCC(c2ccco2)=C1c1cccs1 [YC-049] | some activity that remained | – | – | EC50 (mouse P23H-opsin mutant): 91.9 µM; Emax (mouse P23H-opsin mutant; U2OS, read-out: Efficacy (%)): 112% |
| O=C1OCC(c2ccc(Cl)s2)=C1c1cccc(F)c1 [YC-050] | lower efficacies | 7.36 | 131 | – |
| O=C1OCC(c2ccc(Cl)s2)=C1c1ccsc1 [YC-051] | activity was preserved or improved | 10.9 | 169 | – |
| COc1ccc(C2=C(c3ccc(Cl)s3)COC2=O)cc1 [YC-052] | – | 7.13 | 10 | – |
| O=C1OCC(c2ccc(Cl)s2)=C1c1ccc(F)cc1 [YC-053] | little efficacy | 24.1 | 32.9 | – |
| Cc1c(F)cccc1C1=C(c2ccc(Cl)s2)COC1=O [YC-054] | improved potency, efficacy, or solubility | 3.53 | 227 | – |
| O=C1OCC(c2ccc(Cl)s2)=C1c1ccc(Cl)cc1Cl [YC-055] | – | 5.33 | 11 | – |
| COc1cccc(C2=C(c3ccc(Cl)s3)COC2=O)c1Cl [YC-056] | – | 9.39 | 104 | – |
| O=C1NCC(c2ccc(Cl)s2)=C1c1cccs1 [YC-060] | – | – | 7.1 | EC50 (mouse P23H-opsin mutant; modifications of the furan-2(5H)-one ring; read-out: Potency): 24.6 µM |
| O=C1OCC(c2ccc(Cl)s2)=C1c1ccccc1F [YC-068] | relatively higher efficacies; also recorded: improved potency, efficacy, or solubility | 5.66 | 261 | – |
